Results: publication PMC10257657, “A flavin-monooxygenase catalyzing oxepinone formation and the complete biosynthesis of vibralactone” (Nature Communications, 2023)

How the values were obtained:
[1] = target: T1, VibO (Boreostereum vibrans, UniProt A0AA82WP17, D99N); assay: LC-MS peak area of product […]; type: biochemical; conditions: 6 0.5 mM, NADPH 0.1 mM, pH 7.5, 28 °C, 2 h; hydroxylation to 7
T1 construct: full length, N-terminal His6 tag, expressed in E. coli BL21(DE3) (pET28a(+)); domains cover residues 1-653; dimer; copurified FAD

[2] = target: T2, VibO (Boreostereum vibrans, UniProt A0AA82WP17, D99A); assay: LC-MS peak area of product […]; type: biochemical; conditions: 6 0.5 mM, NADPH 0.1 mM, pH 7.5, 28 °C, 2 h; hydroxylation to 7
T2 construct: full length, N-terminal His6 tag, expressed in E. coli BL21(DE3) (pET28a(+)); domains cover residues 1-653; dimer; copurified FAD

[3] = target: T3, VibO (Boreostereum vibrans, UniProt A0AA82WP17, F265Y); assay: LC-MS peak area of product […]; type: biochemical; conditions: 6 0.5 mM, NADPH 0.1 mM, pH 7.5, 28 °C, 2 h; hydroxylation to 7
T3 construct: full length, N-terminal His6 tag, expressed in E. coli BL21(DE3) (pET28a(+)); domains cover residues 1-653; dimer; copurified FAD

[4] = target: T4, PHHY (Cutaneotrichosporon cutaneum, UniProt P15245); assay: enzyme assay, catechol production; type: cell-based; conditions: E. coli-expressed enzyme; purification not told in main text
T4 construct: synthesized gene expressed in E. coli; FAD-dependent
T4 sequence (P15245 2-665): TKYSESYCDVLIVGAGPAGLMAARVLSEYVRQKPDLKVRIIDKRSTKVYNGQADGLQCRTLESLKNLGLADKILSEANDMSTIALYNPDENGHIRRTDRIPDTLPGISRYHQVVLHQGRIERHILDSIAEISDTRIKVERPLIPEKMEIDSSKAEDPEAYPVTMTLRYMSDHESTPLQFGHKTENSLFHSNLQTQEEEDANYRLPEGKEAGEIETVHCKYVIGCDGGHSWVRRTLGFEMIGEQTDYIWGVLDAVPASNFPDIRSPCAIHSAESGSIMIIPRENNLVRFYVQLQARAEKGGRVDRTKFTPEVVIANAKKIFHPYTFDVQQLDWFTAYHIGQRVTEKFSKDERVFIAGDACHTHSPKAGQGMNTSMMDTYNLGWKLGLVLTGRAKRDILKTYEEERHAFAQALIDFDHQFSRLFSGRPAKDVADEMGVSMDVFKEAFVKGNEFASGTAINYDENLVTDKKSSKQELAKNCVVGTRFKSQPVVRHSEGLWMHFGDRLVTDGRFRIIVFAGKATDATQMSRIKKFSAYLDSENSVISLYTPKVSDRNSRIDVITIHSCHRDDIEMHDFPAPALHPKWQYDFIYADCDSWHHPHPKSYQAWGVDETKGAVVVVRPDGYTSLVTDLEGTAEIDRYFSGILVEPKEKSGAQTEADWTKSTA

T2 sequence (A0AA82WP17 entry or part of it D99A): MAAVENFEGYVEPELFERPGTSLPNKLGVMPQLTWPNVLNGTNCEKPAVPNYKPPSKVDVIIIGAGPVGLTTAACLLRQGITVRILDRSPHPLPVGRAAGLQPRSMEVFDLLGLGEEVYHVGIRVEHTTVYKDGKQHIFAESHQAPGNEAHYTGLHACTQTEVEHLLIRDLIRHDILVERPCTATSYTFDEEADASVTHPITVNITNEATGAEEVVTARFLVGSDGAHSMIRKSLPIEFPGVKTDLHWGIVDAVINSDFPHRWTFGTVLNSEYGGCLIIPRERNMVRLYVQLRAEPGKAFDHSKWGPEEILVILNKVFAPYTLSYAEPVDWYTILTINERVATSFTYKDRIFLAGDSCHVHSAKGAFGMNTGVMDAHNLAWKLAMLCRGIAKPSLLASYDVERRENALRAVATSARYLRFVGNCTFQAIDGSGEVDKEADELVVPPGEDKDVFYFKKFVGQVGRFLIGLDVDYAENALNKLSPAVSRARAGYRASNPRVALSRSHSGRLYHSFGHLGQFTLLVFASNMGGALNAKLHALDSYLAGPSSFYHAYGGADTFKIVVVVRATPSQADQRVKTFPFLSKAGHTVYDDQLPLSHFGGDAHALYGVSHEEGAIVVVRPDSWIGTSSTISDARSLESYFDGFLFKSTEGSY
T3 sequence (A0AA82WP17 entry or part of it F265Y): as the sequence (A0AA82WP17 entry or part of it D99A) above, with A99D, F265Y counted along it
T1 sequence (A0AA82WP17 entry or part of it D99N): as the sequence (A0AA82WP17 entry or part of it D99A) above, with A99N counted along it

% of wild-type activity (production of 7) [1] [%]	% of wild-type activity (production of 7) [2] [%]	% of wild-type activity (production of 7) [3] [%]	Structure (SMILES)	enzyme assay, catechol production [4]
10	16	22	CC(C)=CCc1cc(CO)ccc1O [compound 6, 3-prenyl-4-hydroxybenzylalcohol]	
			Oc1ccccc1 [phenol]	significant production of catechol was observed for PHHY incubating with phenol
